The record followed here is patent US20110281854A1, “MORPHOLINE COMPOUNDS” (Pfizer Inc, priority 2010, published 2011).

Where two headings read alike, the source gives them in different places.

The test deals with T1, MR (Homo sapiens, UniProt P08235).
T1 construct: expressed in transfected cells; host or cells: Huh7 human liver cells (ATCC), transient transfection with FuGENE 6
T1 sequence (P08235 726-964 limits assumed): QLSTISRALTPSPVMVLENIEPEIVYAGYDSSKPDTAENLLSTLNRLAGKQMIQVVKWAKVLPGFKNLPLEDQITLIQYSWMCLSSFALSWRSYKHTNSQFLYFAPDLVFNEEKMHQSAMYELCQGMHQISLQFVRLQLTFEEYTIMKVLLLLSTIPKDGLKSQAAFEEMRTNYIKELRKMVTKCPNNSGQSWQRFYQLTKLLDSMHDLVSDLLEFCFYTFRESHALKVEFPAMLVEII
Description: Cell-based reporter assay (Gal4-MR-LBD luciferase, antagonist mode). On the procedure:
To measure the ability of test compound in the present invention to modulate the activity of MR (agonize, antagonize, partially agonize, partially antagonize), bioassays were performed that measured the modulation of reporter gene expression. Cells were transiently transfected with a luciferase reporter gene under the control of a Gal4 response element (Gal4-RE-luc) and a plasmid containing the Gal4 DNA binding domain fused to the MR ligand binding domain (Gal4-MR-LBD). Agonists can bind to and activate the MR-LBD, which activates the expression of the luciferase reporter gene through interaction with the Gal4 response element. […] Antagonists can compete for binding to the NHR-LBD and decrease the agonist-induced transcriptional activity of the reporter gene. Therefore, measurement of luciferase activity allowed quantitative determinations of the reporter transcription in the presence of either agonists or competitive antagonists.
The final concentration of DMSO in the test plate was 0.5%. Following an overnight incubation with compound, 25 μL of Steady-Glow™ lysis buffer with luciferase substrate (Promega Corporation, E2550) was added directly to the cells. After a 30-minute incubation to completely lyse the cells, the microplates were counted in an Envision™ Multilabel Reader (Perkin Elmer) in single photon counting mode.

The mark [1] stands for this setting: antagonist mode, decrease of EC80 aldosterone signal by 50%, Huh7 cells transfected with Gal4-MR-LBD and Gal4-RE-luc.

On to `Cc1cc(N2CCOC[C@H]2c2ccccc2)cc2c1OCC(=O)N2` (single isomer, unassigned) [Example 22], for which the IC50 is 885 nM.
Consider `C[C@@H]1CN(c2ccc3c(n2)NC(=O)CO3)[C@H](c2ccccc2Cl)CO1` (single isomer, unassigned) [Example 67], for which the IC50 was determined as 135 nM.
On the same count and under the same terms, for `C[C@@H]1CN(c2ccc3c(n2)NC(=O)C(F)(F)O3)[C@H](c2ccccc2)CO1` [Example 30, 2,2-difluoro-6-((2R,5R)-2-methyl-5-phenylmorpholino)-2H-pyrido[3,2-b][1,4]oxazin-3(4H)-one] the value was 9560 nM.
Same read-out and setting: for `C[C@@H]1CN(c2ccc3c(n2)NC(=O)CO3)[C@H](c2ccc(F)cc2F)CO1` [Example 52, 6-((2R,5R)-5-(2,4-difluorophenyl)-2-methylmorpholino)-2H-pyrido[3,2-b][1,4]oxazin-3(4H)-one] the value was 278 nM; for `C[C@H]1CN(c2ccc3c(n2)NC(=O)CO3)[C@@H]2c3ccccc3C[C@@H]2O1` (single isomer, unassigned) [Example 24], 1770 nM.
The same measure, in the same setting: to `CC1(c2ccccc2)CN(c2ccc3c(c2)NC(=O)CO3)CCO1` (centres unmarked) [Example 38, 6-(2-methyl-2-phenylmorpholino)-2H-benzo[b][1,4]oxazin-3(4H)-one] belongs 4970 nM.
In turn, `C[C@@H]1CN(c2ccc3c(c2)NS(=O)(=O)CO3)[C@H](c2ccccc2)CO1` [Example 47, 7-[(2R,5R)-2-methyl-5-phenylmorpholin-4-yl]-1H-4,2,1-benzoxathiazine 2,2-dioxide] yielded a concentration for half-maximal inhibition (IC50) of 1630 nM.
Still for that read-out and setting: for `C[C@@H]1CN(c2ncc3c(n2)NC(=O)CO3)[C@H](c2ccccc2)[C@H](C)O1` [Example 42, 2-((2S,3R,6R)-2,6-dimethyl-3-phenylmorpholino)-6H-pyrimido[5,4-b][1,4]oxazin-7(8H)-one] the value was 527 nM.
For the molecule `C[C@H]1CN(c2cc3c(cn2)OCC(=O)N3)[C@@H](c2ccccc2F)CO1` (racemic) [Example 32, (±)-7-(cis-5-(2-fluorophenyl)-2-methylmorpholino)-1H-pyrido[3,4-b][1,4]oxazin-2(3H)-one], the IC50 is 111 nM.
The same measure, in the same setting: for `Cc1nc(N2C[C@@H](C)OC[C@H]2c2ccccc2)nc2c1OCC(=O)N2` [Example 68, 4-methyl-2-((2R,5R)-2-methyl-5-phenylmorpholino)-6H-pyrimido[5,4-b][1,4]oxazin-7(8H)-one] the value was 2280 nM.
The molecule `C[C@H]1CN(c2ccc3c(n2)NC(=O)CO3)CCO1` (single isomer, unassigned) [Example 18] yielded a half-inhibitory concentration (IC50) of 2710 nM.
Same read-out and setting: for `O=C1COc2ccc(N3CCO[C@H]4Cc5ccccc5[C@H]43)nc2N1` [Example 20, 6-((4aR,9aS)-2,3,9,9a-tetrahydroindeno[2,1-b][1,4]oxazin-4(4aH)-yl)-2H-pyrido[3,2-b][1,4]oxazin-3(4H)-one] the value was 3000 nM.
Molecule `C[C@@H]1CN(c2cc3c(cn2)OCC(=O)N3)[C@H](c2ccccc2F)CO1` (single isomer, unassigned) [Example 33] gave a half-inhibitory concentration (IC50) of 53.9 nM. Against the preceding molecule, the IC50 is about 56-fold lower.
On the same count and under the same terms, to `C[C@@H]1CN(c2cc3c(cn2)OCC(=O)N3)[C@H](c2ccccc2)[C@H](C)O1` [Example 43, 7-((2S,3R,6R)-2,6-dimethyl-3-phenylmorpholino)-1H-pyrido[3,4-b][1,4]oxazin-2(3H)-one] belongs 395 nM.
In turn, `C[C@@H]1CN(c2ccc3c(n2)NC(=O)CO3)[C@H](C)CO1` [Example 71, 6-((2R,5R)-2,5-dimethylmorpholino)-2H-pyrido[3,2-b][1,4]oxazin-3(4H)-one] displayed an IC50 of 1930 nM.
In the case of `O=C1COc2ccc(N3CCOC[C@H]3c3ccc(F)cc3)nc2N1` (single isomer, unassigned) [Example 14], the IC50 was 1100 nM.
`C[C@@H]1CN(c2ccc3c(c2)NC(=O)CO3)[C@H](c2ccccc2)CO1` [Example 28, 6-((2R,5R)-2-methyl-5-phenylmorpholino)-2H-benzo[b][1,4]oxazin-3(4H)-one] had a half-maximal inhibitory concentration (IC50) of 24 nM. Against the preceding molecule, the IC50 is about 46-fold lower.
Molecule `C[C@@H]1CN(c2cccc(NS(C)(=O)=O)n2)[C@H](c2ccccc2)CO1` [Example 27, N-(6-((2R,5R)-2-methyl-5-phenylmorpholino)pyridin-2-yl)methanesulfonamide] displayed a half-inhibitory concentration (IC50) of 1230 nM.
On the same count and under the same terms, for `O=C1COc2ccc(N3CCOC4(CCOc5ccccc54)C3)cc2N1` (centres unmarked) [Example 73, 6-(spiro[chroman-4,2′-morpholine]-4′-yl)-2H-benzo[b][1,4]oxazin-3(4H)-one] the value was 6340 nM; for `C[C@@H]1CN(c2ccc3ccc(=O)[nH]c3c2)[C@H](c2ccccc2)CO1` [Example 59, 7-((2R,5R)-2-methyl-5-phenylmorpholino)quinolin-2(1H)-one], 703 nM.
In the case of “(±)-2-(cis-5-(2-methoxyphenyl)-2-methylmorpholino)-6H-pyrimido[5,4-b][1,4]oxazin-7(8H)-one [Example 56]”, the IC50 under setting [1] is 5330 nM.
In the case of `C[C@@H]1CN(c2ccc3c(n2)NC(=O)CO3)C[C@H](C)O1` [Example 25, 6-(cis-2,6-dimethylmorpholino)-2H-pyrido[3,2-b][1,4]oxazin-3(4H)-one], it took 798 nM to reach half-maximal inhibition (IC50).
In the case of `C[C@@H]1CN(c2nc3c(cc2F)OCC(=O)N3)[C@H](c2ccccc2)CO1` [Example 37, 7-fluoro-6-((2R,5R)-2-methyl-5-phenylmorpholino)-2H-pyrido[3,2-b][1,4]oxazin-3(4H)-one], the IC50 came to 1440 nM.
The molecule `C[C@@H]1CN(c2cnc3c(c2)NC(=O)CO3)[C@H](c2ccccc2)CO1` [Example 58, 7-((2R,5R)-2-methyl-5-phenylmorpholino)-1H-pyrido[2,3-b][1,4]oxazin-2(3H)-one] registered an IC50 of 2990 nM.
Same read-out and setting: for `C[C@@H]1CN(c2ccc3c(n2)NCCO3)[C@H](c2ccccc2)CO1` [Example 6, 6-[(2R,5R)-2-methyl-5-phenylmorpholin-4-yl]-3,4-dihydro-2H-pyrido[3,2-b][1,4]oxazine] the value was 977 nM.
Still for that read-out and setting: to `C[C@H]1CN(c2ccc3c(n2)NC(=O)CO3)[C@@H](c2ccccc2F)CO1` (racemic) [Example 7, (±)-6-(cis-5-(2-fluorophenyl)-2-methylmorpholino)-2H-pyrido[3,2-b][1,4]oxazin-3(4H)-one] belongs 63.6 nM.
With “6-((2S,5R)-2-(methoxymethyl)-5-phenylmorpholino)-2H-pyrido[3,2-b][1,4]oxazin-3(4H)-one [Example 49]”, inhibition under setting [1] was half-maximal at 358 nM (IC50).
The molecule `O=C1COc2ccc(N3CCOC(c4ccccc4)C3c3ccccc3)cc2N1` (centres unmarked) [Example 75, 6-(2,3-diphenylmorpholino)-2H-benzo[b][1,4]oxazin-3(4H)-one] yielded an IC50 of 3080 nM.
On the same count and under the same terms, for `O=C1COc2ccc(N3CCOC4(CCCc5ccccc54)C3)cc2N1` (centres unmarked) [Example 72, 6-(3′,4′-dihydro-2′H-spiro[morpholine-2,1′-naphthalene]-4-yl)-2H-benzo[b][1,4]oxazin-3(4H)-one] the value was 8750 nM; for `CC1(C)OCCN(c2ccc3c(n2)NC(=O)CO3)C1c1ccccc1` (centres unmarked) [Example 53, 6-(2,2-dimethyl-3-phenylmorpholino)-2H-pyrido[3,2-b][1,4]oxazin-3(4H)-one], 7450 nM.
Same read-out and setting: to `N#CC[C@@H]1CN(c2ccc3c(n2)NC(=O)CO3)[C@H](c2ccccc2)CO1` [Example 40, 2-((2R,5R)-4-(3-oxo-3,4-dihydro-2H-pyrido[3,2-b][1,4]oxazin-6-yl)-5-phenylmorpholin-2-yl)acetonitrile] belongs 97.9 nM; to `O=C1COc2ccc(N3CCOCC34CCc3ccccc34)nc2N1` (centres unmarked) [Example 36, 6-(2,3-dihydrospiro[indene-1,3′-morpholin]-4′-yl)-2H-pyrido[3,2-b][1,4]oxazin-3(4H)-one], 1740 nM; to `C[C@@H]1CN(c2cc3c(cn2)OCC(=O)N3)[C@H](c2ccc(F)cc2)CO1` [Example 61, 7-((2R,5R)-5-(4-fluorophenyl)-2-methylmorpholino)-1H-pyrido[3,4-b][1,4]oxazin-2(3H)-one], 646 nM.
`C[C@@H]1CN(c2ccc3c(n2)NC(=O)CO3)[C@H](c2ccccc2F)CO1` (single isomer, unassigned) [Example 8]: the IC50 came out at 33.4 nM.
On the same count and under the same terms, for `CC1CN(c2ccc3c(n2)NC(=O)CO3)CCO1` (racemic) [Example 17, 6-(2-methylmorpholino)-2H-pyrido[3,2-b][1,4]oxazin-3(4H)-one] the value was 3050 nM.
With `C[C@H]1CN(c2ncc3c(n2)NC(=O)CO3)[C@@H](c2ccccc2F)CO1` (racemic) [Example 34, (±)-2-(cis-5-(2-fluorophenyl)-2-methylmorpholino)-6H-pyrimido[5,4-b][1,4]oxazin-7(8H)-one], half-maximal inhibition (IC50) required 146 nM.
Same read-out and setting: to `O=C1COc2ccc(N3CCOC[C@H]3c3ccccc3)cc2N1` [Example 21, (R)-6-(3-phenylmorpholino)-2H-benzo[b][1,4]oxazin-3(4H)-one] belongs 583 nM; to `O=C1COc2ccc(N3CCOC[C@@H]3c3ccccc3)cc2N1` [Example 41, (S)-6-(3-phenylmorpholino)-2H-benzo[b][1,4]oxazin-3(4H)-one], 5230 nM.
